Experiment: Pharmacokinetics of bupropion in plasma after oral administration to four normal male subjects (RIA using 3H bupropion)
Type: in vivo
Conditions: human plasma, oral 200 mg bupropion-HCl (two 100 mg tablets)
Protocol: Samples of six standard solutions of bupropion in blank plasma having concentrations of 0.39 to 50 ng/ml) are pipetted (0.1 ml each) in duplicate into 12×75 mm plastic tubes. Duplicate non-specific binding (no antibody) and maximum binding tubes (no unlabeled bupropion) receive 0.1 ml blank plasma. Spiked plasma controls at several concentrations of (e.g., 1.0, 10.0, and 100 ng/ml) and plasma samples for assay (diluted into the standard range with blank plasma if necessary) are assayed in duplicate. After being placed in an ice bath, all tubes receive (in order) 0.2 ml ^3 H bupropion (416 pg. containing approximately 10^4 cpm) and 0.7 ml anti-bupropion serum (raised to a ring-functionalized immunogen according to the present invention) (at pre-determined dilutions such that approximately 40% of the ^3 H bupropion added is bound), both in assay buffer (0.05 M phosphate-bufferedisotonic saline, containing 0.01 M EDTA and 0.1% gelatin, pH 7.0). […] The supernatants, containing antibody-bound ^3 H bupropion are carefully decanted into liquid scintillation cocktail for quantitation of ^3 H. After counts (minus average non-specific binding cpm) are expressed as percentages of average maximum binding cpm, bupropion concentrations in plasma samples and spiked controls are read from a standard curve (log concentration vs percent average maximum binding).
The procedure of Example X has been applied to a study of bupropion (supplied as Wellbatrin, produced by Burroughs Wellcome Co.) pharmacokinetics in plasma after oral administration of 200 mg bupropion-HCl (in two 100 mg tablets) to four normal male subjects. Venous blood samples were collected at various times following dosing, and concentrations in plasma samples determined as described. […]

Structure (SMILES): CC(NC(C)(C)C)C(=O)c1cccc(Cl)c1 (racemic) [bupropion, (±)-2-tert-butylamino-3'-chloropropiophenone]
- Cmax (mean ± S.D., read-out: maximum plasma bupropion concentration): 217 ± 37 ng/mL
- Tmax (mean ± S.D., read-out: time to reach maximum concentration): 1.5 ± 0.4 h
- half-life (± S.D., read-out: mean elimination half-life (converted)): 2.9 ± 0.4 h
